Test results: PubChem BioAssay AID248 (DTP/NCI, 2004)
Values joined by “and” are separate entries in the source; they are usually repeats but may differ in a detail not shown here. Equal values may be shown once. Toxic doses and inconclusive results are not listed. Cut-off read from the data, not from the text of the source: active = T/C of 150% or more; inactive = T/C below 125%.

System: L1210 leukemia ip in BDF1 mice, survival T/C
Experiment: NCI In Vivo Anticancer Drug Screen. Data for tumor model L1210 Leukemia (intraperitoneal) in B6D2F1 (BDF1) mice
Conditions: endpoint: mean survival time, higher = longer survival
Summary of the method: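 Value reflects the ratio of survival in compound-treated mice to survival in vehicle-treated controls, with both groups carrying the same transplanted tumor.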

[1] = dose: 100.0 mg/kg/injection, schedule: Q01DX001 (ip), vehicle: saline
[2] = dose: 100.0 mg/kg/injection, schedule: Q04DX003 (ip), vehicle: Klucel (hydroxypropylcellulose) (HPC)
[3] = dose: 200.0 mg/kg/injection, schedule: Q04DX003 (ip), vehicle: Klucel (hydroxypropylcellulose) (HPC)
[4] = dose: 400.0 mg/kg/injection, schedule: Q04DX003 (ip), vehicle: Klucel (hydroxypropylcellulose) (HPC)
[5] = dose: 50.0 mg/kg/injection, schedule: Q01DX009 (ip), vehicle: saline with Tween-80
[6] = dose: 100.0 mg/kg/injection, schedule: Q01DX009 (ip), vehicle: saline with Tween-80
[7] = dose: 100.0 mg/kg/injection, schedule: Q04DX002 (ip), vehicle: saline with Tween-80
[8] = dose: 100.0 mg/kg/injection, schedule: Q04DX003 (ip), vehicle: saline with Tween-80
[9] = dose: 200.0 mg/kg/injection, schedule: Q04DX002 (ip), vehicle: saline with Tween-80
[10] = dose: 200.0 mg/kg/injection, schedule: Q04DX003 (ip), vehicle: saline with Tween-80
[11] = dose: 400.0 mg/kg/injection, schedule: Q04DX002 (ip), vehicle: saline with Tween-80
[12] = dose: 400.0 mg/kg/injection, schedule: Q04DX003 (ip), vehicle: saline with Tween-80
[13] = dose: 100.0 mg/kg/injection, schedule: Q04DX002 (ip), vehicle: Klucel (hydroxypropylcellulose) (HPC)
[14] = dose: 200.0 mg/kg/injection, schedule: Q04DX002 (ip), vehicle: Klucel (hydroxypropylcellulose) (HPC)
[15] = dose: 400.0 mg/kg/injection, schedule: Q04DX002 (ip), vehicle: Klucel (hydroxypropylcellulose) (HPC)
[16] = dose: 100.0 mg/kg/injection, schedule: Q01DX009 (ip), vehicle: Klucel (hydroxypropylcellulose) (HPC)

Measured: T/C

CC1=C(c2ccccc2)C2(c3ccccc3)C3(C)C(=O)C(C)(C(c4ccccc4)C3c3ccccc3)C2(C)C1=O (stereo not given)
inactive: dose: 100.0 mg/kg/injection, schedule: Q04DX002 (ip), vehicle: gum acacia 97 % of control | dose: 200.0 mg/kg/injection, schedule: Q04DX002 (ip), vehicle: gum acacia 91 % of control | dose: 400.0 mg/kg/injection, schedule: Q04DX002 (ip), vehicle: gum acacia 94 % of control

Cc1ccc(S(=O)(=O)OCCN(CCOS(=O)(=O)c2ccc(C)cc2)c2ccccc2)cc1
inactive: dose: 7.5 mg/kg/injection, schedule: Q01DX015 (ip), vehicle: carboxymethylcellulose (CMC) 109 % of control | dose: 50.0 mg/kg/injection, schedule: Q01DX001 (ip), vehicle: saline 117 % of control | dose: 60.0 mg/kg/injection, schedule: Q01DX015 (ip), vehicle: carboxymethylcellulose (CMC) 122 % of control | [1] 115 % of control

CCCCCCCCCCCCN(CCCCCCCCCCCC)S(=O)(=O)c1ccc(Cl)c([N+](=O)[O-])c1
inactive: [2] 94 % of control | [3] 94 % of control | [4] 104 % of control

CCCC(=O)OCC1CC2C=CC1C2 (stereo not given)
inactive: dose: 222.0 mg/kg/injection, schedule: Q01DX Z (ip), vehicle: saline 100 % of control | dose: 333.0 mg/kg/injection, schedule: Q01DX Z (ip), vehicle: saline 102 % of control | dose: 500.0 mg/kg/injection, schedule: Q01DX Z (ip), vehicle: saline 112 % of control

CC(c1ccccc1)N1C(=O)CSC1=S (stereo not given)
inactive: [5] 96 % of control and 101 % of control | dose: 100.0 mg/kg/injection, schedule: Q01DX001 (ip), vehicle: saline with Tween-80 100 % of control | [6] 99 % of control and 107 % of control | [7] 96 % of control and 98 % of control | [8] 104 % of control | dose: 200.0 mg/kg/injection, schedule: Q01DX001 (ip), vehicle: saline with Tween-80 100 % of control | dose: 200.0 mg/kg/injection, schedule: Q01DX009 (ip), vehicle: saline with Tween-80 96 % of control and 91 % of control | [9] 91 % of control | [10] 102 % of control | dose: 400.0 mg/kg/injection, schedule: Q01DX001 (ip), vehicle: saline with Tween-80 92 % of control | [11] 90 % of control | [12] 90 % of control

CC(C)(Oc1ccc(Cl)cc1)C(=O)NC(N)=O
inactive: dose: 50.0 mg/kg/injection, schedule: Q01DX009 (ip), vehicle: saline 95 % of control | dose: 100.0 mg/kg/injection, schedule: Q01DX009 (ip), vehicle: saline 113 % of control | dose: 200.0 mg/kg/injection, schedule: Q01DX009 (ip), vehicle: saline 103 % of control

NC(=S)N/N=C1\CCCC\C1=N/NC(N)=S
inactive: dose: 50.0 mg/kg/injection, schedule: Q01DX001 (ip), vehicle: carboxymethylcellulose (CMC) 101 % of control | dose: 100.0 mg/kg/injection, schedule: Q01DX001 (ip), vehicle: carboxymethylcellulose (CMC) 109 % of control | dose: 200.0 mg/kg/injection, schedule: Q01DX001 (ip), vehicle: carboxymethylcellulose (CMC) 101 % of control | dose: 400.0 mg/kg/injection, schedule: Q01DX001 (ip), vehicle: carboxymethylcellulose (CMC) 104 % of control

Nc1ncnc(N)c1NC(=O)CCCc1ccccc1
inactive: [2] 86 % of control | [3] 92 % of control

O=C(COc1cc(Cl)c(Cl)cc1Cl)Nc1ccc(N=Nc2ccccc2)cc1
inactive: [13] 99 % of control | [14] 99 % of control | [15] 86 % of control

COC(=O)C1=C(C(=O)OC)C2C=CC1C1(C)N=C(OC)C21C (stereo not given)
inactive: [7] 100 % of control | [9] 100 % of control | [11] 102 % of control

C[S+](C)(=O)/C=C(\[O-])Nc1ccccc1
inactive: [16] 101 % of control | [2] 101 % of control | dose: 200.0 mg/kg/injection, schedule: Q01DX009 (ip), vehicle: Klucel (hydroxypropylcellulose) (HPC) 92 % of control | [3] 97 % of control | dose: 400.0 mg/kg/injection, schedule: Q01DX009 (ip), vehicle: Klucel (hydroxypropylcellulose) (HPC) 97 % of control | [4] 103 % of control

COC(=O)C(C)(C)Br
inactive: dose: 100.0 mg/kg/injection, schedule: Q01DX009 (ip), vehicle: saline sonified 94 % of control | dose: 200.0 mg/kg/injection, schedule: Q01DX009 (ip), vehicle: saline sonified 100 % of control | dose: 400.0 mg/kg/injection, schedule: Q01DX009 (ip), vehicle: saline sonified 100 % of control

NCCCN=C=NCc1ccccc1
inactive: [1] 100 % of control

CC1CCC2C(C)C3C(CC4C5CC=C6CC(OC7OC(CO)C(O)C(OC8OC(CO)C(O)C(O)C8O)C7OC7OC(C)C(O)C(O)C7O)CCC6(C)C5CCC43C)N2C1 (stereo not given)
inactive: dose: 12.5 mg/kg/injection, schedule: Q01DX015 (sc), vehicle: steriod suspending solution 101 % of control | dose: 25.0 mg/kg/injection, schedule: Q01DX015 (sc), vehicle: steriod suspending solution 98 % of control | dose: 50.0 mg/kg/injection, schedule: Q01DX015 (sc), vehicle: steriod suspending solution 95 % of control | dose: 100.0 mg/kg/injection, schedule: Q01DX001 (sc), vehicle: steriod suspending solution 100 % of control | dose: 100.0 mg/kg/injection, schedule: Q01DX015 (sc), vehicle: steriod suspending solution 101 % of control | dose: 200.0 mg/kg/injection, schedule: Q01DX001 (sc), vehicle: steriod suspending solution 105 % of control | dose: 400.0 mg/kg/injection, schedule: Q01DX001 (sc), vehicle: steriod suspending solution 103 % of control

CC(C#N)NC(=O)NC(C)C(N)=O (stereo not given)
inactive: [1] 107 % of control | dose: 200.0 mg/kg/injection, schedule: Q01DX001 (ip), vehicle: saline 107 % of control | dose: 400.0 mg/kg/injection, schedule: Q01DX001 (ip), vehicle: saline 97 % of control

CC(=O)NCC(O)C(O)C(/C=N/Nc1ccccc1)=N/Nc1ccccc1 (stereo not given)
inactive: dose: 50.0 mg/kg/injection, schedule: Q04DX002 (ip), vehicle: saline with Tween-80 91 % of control | [7] 87 % of control | [9] 95 % of control

CC(=O)Nc1cccc2c1C(=O)c1ccccc1-2
inactive: [8] 102 % of control | [10] 112 % of control | [12] 102 % of control

Cn1c2c(c(=O)n(C)c1=O)CC(=O)N2
inactive: dose: 50.0 mg/kg/injection, schedule: Q01DX009 (ip), vehicle: Klucel (hydroxypropylcellulose) (HPC) 100 % of control | [16] 103 % of control

C[N+](C)(C)/N=C/c1ccc(Cl)cc1
inactive: dose: 5.0 mg/kg/injection, schedule: Q01DX001 (ip), vehicle: carboxymethylcellulose (CMC) 98 % of control | dose: 10.0 mg/kg/injection, schedule: Q01DX001 (ip), vehicle: carboxymethylcellulose (CMC) 104 % of control | dose: 20.0 mg/kg/injection, schedule: Q01DX001 (ip), vehicle: carboxymethylcellulose (CMC) 95 % of control | dose: 40.0 mg/kg/injection, schedule: Q01DX001 (ip), vehicle: carboxymethylcellulose (CMC) 104 % of control

CCN(CC)CCC(=O)Nc1cccc2c1C(=O)c1c(c(O)c3ccccc3c1O)C2=O
inactive: [5] 105 % of control | [6] 91 % of control | [8] 105 % of control | [10] 90 % of control

O=C(COc1ccccc1)CC(O)(C(F)(F)F)C(F)(F)F
inactive: [8] 97 % of control | [10] 92 % of control

O=[N+]([O-])c1ccc(N=Cc2ccccc2O)cc1.O=[N+]([O-])c1ccc(N=Cc2ccccc2O)cc1.[Cu]
inactive: dose: 12.5 mg/kg/injection, schedule: Q01DX009 (ip), vehicle: saline with Tween-80 100 % of control | dose: 25.0 mg/kg/injection, schedule: Q01DX009 (ip), vehicle: saline with Tween-80 94 % of control | [5] 93 % of control

C=CCN(CC=C)c1ncnc(N(C)C)n1
inactive: dose: 25.6 mg/kg/injection, schedule: Q04DX002 (ip), vehicle: saline with Tween-80 93 % of control | dose: 64.0 mg/kg/injection, schedule: Q04DX002 (ip), vehicle: saline with Tween-80 101 % of control | dose: 160.0 mg/kg/injection, schedule: Q04DX002 (ip), vehicle: saline with Tween-80 101 % of control | [11] 97 % of control

O=C(NC(=S)N1CCCC1)c1ccccc1
inactive: [13] 96 % of control | [14] 107 % of control | [15] 96 % of control

C[CH2][Ge]1([CH2]C)[CH2]CC2(C[CH2]1)NC(=O)N(CCCN(C)C)C2=O
inactive: dose: 100.0 mg/kg/injection, schedule: Q04DX002 (ip), vehicle: saline 100 % of control | dose: 200.0 mg/kg/injection, schedule: Q04DX002 (ip), vehicle: saline 105 % of control
